Source: patent publication US20140081017A1, “Histone Deacetylase Inhibitors for Enhancing Activity of Antifungal Agents” (METHYLGENE INC., priority 2012, published 2014)
Values after ≈ are worked out from the molar mass of the structure shown. Like-named read-outs stand apart in the source and are kept apart here.

Key:
C. glabrata = experiment: Checkerboard FIC assay in combination with fluconazole (MIC alone and in combination, FICI); format: cell-based, Candida glabrata; conditions: for FICI of combination resulting in fluconazole MIC of: 2 ug/mL / FICI of combination resulting in fluconazole MIC of: 4 ug/mL / FICI of combination resulting in fluconazole MIC of: 8 ug/mL: FICI calculated using a fluconazole MIC of 16 μg/mL; for FICI of combination resulting in fluconazole MIC of: 2 ug/mL (value in parenthesis) / FICI of combination resulting in fluconazole MIC of: 4 ug/mL (value in parenthesis) / FICI of combination resulting in fluconazole MIC of: 8 ug/mL (value in parenthesis): FICI using a fluconazole MIC of 128 μg/mL; for MIC: Nakaseomyces glabratus; for Concentration of Methylgene compound to synergize fluconazole MIC to 2 ug/mL / Concentration of Methylgene compound to synergize fluconazole MIC to 4 ug/mL / Concentration of Methylgene compound to synergize fluconazole MIC to 8 ug/mL: in combination with fluconazole; for Concentration of Methylgene compound to synergize fluconazole MIC to 2 ug/mL: fluconazole MIC lowered to 2 ug/mL; for Concentration of Methylgene compound to synergize fluconazole MIC to 4 ug/mL: fluconazole MIC lowered to 4 ug/mL; for Concentration of Methylgene compound to synergize fluconazole MIC to 8 ug/mL: fluconazole MIC lowered to 8 ug/mL
Outline: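 C. glabrata was tested by CLSI broth microdilution checkerboard, crossing 2-fold dilutions of compound with 2-fold dilutions of fluconazole. The medium was RPMI with 0.165 M MOPS at pH 7.0, inoculated from a 0.5 McFarland suspension diluted 1:100, then incubated about 48 h at 35 °C. Single-agent MICs gave the FIC and FICI values.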

Candida glabrata = experiment: Minimal Inhibitory Concentration (MIC) assay, broth microdilution per CLSI; format: cell-based; conditions: Nakaseomyces glabratus, read-out: Minimum Inhibitory Concentrations against Yeast Isolates, Candida glabrata;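 note: two read times 24 hr and 48 hr of incubation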
Outline: (§1)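 Yeasts incubated ~24-48 hr at 35°C in MOPS-buffered RPMI (0.165 M, pH 7.0) containing DMSO-dissolved compound, following CLSI microdilution. Inoculum: 0.5 McFarland, diluted 1:100. MIC read visually as lowest concentration inhibiting growth (prominent-decrease endpoint for fluconazole).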

Candida albicans = experiment: as above; format: cell-based; conditions: Candida albicans, read-out: Minimum Inhibitory Concentrations against Yeast Isolates, Candida albicans;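 note: two read times 24 hr and 48 hr of incubation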
Outline: as §1

Candida parapsilosis = experiment: as above; format: cell-based; conditions: Lodderomyces parapsilosis, read-out: Minimum Inhibitory Concentrations against Yeast Isolates, Candida parapsilosis;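 note: two read times 24 hr and 48 hr of incubation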
Outline: as §1

[1] = MIC of the example compound alone against C. glabrata in the checkerboard assay, approximately 48 hr, read-out: Methylgene MIC
[2] = test compound alone, C. glabrata, approx. 48 hr at 35° C., read-out: Compound MIC
[3] = 24 hr reading (first value of cell 24 hr/48 hr)
[4] = 48 hr reading (second value of cell 24 hr/48 hr)

| SMILES | FICI of combination resulting in fluconazole MIC of: 2 ug/mL (C. glabrata; C. glabrata) | FICI of combination resulting in fluconazole MIC of: 4 ug/mL (C. glabrata; C. glabrata) | FICI of combination resulting in fluconazole MIC of: 8 ug/mL (C. glabrata; C. glabrata) | FICI of combination resulting in fluconazole MIC of: 2 ug/mL (value in parenthesis) (C. glabrata; C. glabrata) | FICI of combination resulting in fluconazole MIC of: 4 ug/mL (value in parenthesis) (C. glabrata; C. glabrata) | FICI of combination resulting in fluconazole MIC of: 8 ug/mL (value in parenthesis) (C. glabrata; C. glabrata) | MIC (C. glabrata; [1]) [µg/mL] | MIC (C. glabrata; [2]) [µg/mL] | Concentration of Methylgene compound to synergize fluconazole MIC to 2 ug/mL (C. glabrata; C. glabrata) [µg/mL] | Concentration of Methylgene compound to synergize fluconazole MIC to 4 ug/mL (C. glabrata; C. glabrata) [µg/mL] | Concentration of Methylgene compound to synergize fluconazole MIC to 8 ug/mL (C. glabrata; C. glabrata) [µg/mL] | MIC (Candida glabrata; [3]) [µg/mL] | MIC (Candida glabrata; [4]) [µg/mL] | MIC (Candida albicans; [3]) [µg/mL] | MIC (Candida albicans; [4]) [µg/mL] | MIC (Candida parapsilosis; [3]) [µg/mL] | MIC (Candida parapsilosis; [4]) [µg/mL] | Multiple of compound MIC to synergize fluconazole MIC to 2 ug/mL (C. glabrata; concentration in combination as multiple of the compound's MIC alone, fluconazole MIC 2 ug/mL) | Multiple of compound MIC to synergize fluconazole MIC to 4 ug/mL (C. glabrata; concentration in combination as multiple of the compound's MIC alone, fluconazole MIC 4 ug/mL) | Multiple of compound MIC to synergize fluconazole MIC to 8 ug/mL (C. glabrata; concentration in combination as multiple of the compound's MIC alone, fluconazole MIC 8 ug/mL) |
| --- | --- | --- | --- | --- | --- | --- | --- | --- | --- | --- | --- | --- | --- | --- | --- | --- | --- | --- | --- | --- |
| COC(=O)Nc1ccc(CCCCc2ccc(CC(=O)NO)cc2)cc1 [Example 48, methyl 4-(4-(4-(2-(hydroxyamino)-2-oxoethyl)phenyl)butyl) phenylcarbamate] | 0.188 | 0.188 | 0.313 | 0.141 | 0.094 | 0.125 | > 4 | > 4 | 1 | 0.5 | 0.5 | > 4 | > 4 | > 4 | > 4 | > 4 | > 4 |  |  |  |
| O=C(Cc1ccc(CCCCc2ccc(C(=O)NCCCn3ccnc3)cc2)cc1)NO [Example 22, N-(3-(1H-imidazol-1-yl)propyl)-4-(4-(4-(2-(hydroxyamino)-2-oxoethyl)phenyl)butyl)benzamide] | 0.188 | 0.250 | 0.313 | 0.141 | 0.156 | 0.125 | 16 | 16 | 2 | 2 | 1 | 8 (≈ 18.4 µM) | > 8 | > 8 | > 8 | > 8 | > 8 | (⅛x) | (⅛x) | ( 1/16x) |
| CC(C(=O)NO)c1ccc(CCC(O)Cc2ccccc2)cc1 (stereo not drawn) [Example 58, N-hydroxy-2-(4-(3-hydroxy-4-phenylbutyl)phenyl)propanamide] | 0.188 | 0.250 | 0.375 | 0.141 | 0.156 | 0.188 | > 16 | > 16 | 4 | 4 | 4 | 8 (≈ 25.5 µM) | 64 (≈ 204 µM) | > 64 | > 64 | > 64 | > 64 |  |  |  |
